These results are taken from publication PMC11788587, “Validating Low‐Dose Iohexol as a Marker for Glomerular Filtration Rate by In Vitro and In Vivo Studies” (Clinical and Translational Science, 2025).

For series [1] the following is noted: cited from earlier work.
Series [2] concerns rat‐isolated perfused kidney. The arrangement: method as in ref 14 Masereeuw et al. To be noted: mean ± standard deviation, ref 14 Masereeuw et al., cited from earlier work.
The target in a further series is T1, hMATE1 (Homo sapiens, UniProt Q96FL8).
T1 construct: expressed in transfected cells; host or cells: HEK-293 (293) cells, pEBTetD plasmid, doxycycline-induced
T1 sequence (Q96FL8 1-570): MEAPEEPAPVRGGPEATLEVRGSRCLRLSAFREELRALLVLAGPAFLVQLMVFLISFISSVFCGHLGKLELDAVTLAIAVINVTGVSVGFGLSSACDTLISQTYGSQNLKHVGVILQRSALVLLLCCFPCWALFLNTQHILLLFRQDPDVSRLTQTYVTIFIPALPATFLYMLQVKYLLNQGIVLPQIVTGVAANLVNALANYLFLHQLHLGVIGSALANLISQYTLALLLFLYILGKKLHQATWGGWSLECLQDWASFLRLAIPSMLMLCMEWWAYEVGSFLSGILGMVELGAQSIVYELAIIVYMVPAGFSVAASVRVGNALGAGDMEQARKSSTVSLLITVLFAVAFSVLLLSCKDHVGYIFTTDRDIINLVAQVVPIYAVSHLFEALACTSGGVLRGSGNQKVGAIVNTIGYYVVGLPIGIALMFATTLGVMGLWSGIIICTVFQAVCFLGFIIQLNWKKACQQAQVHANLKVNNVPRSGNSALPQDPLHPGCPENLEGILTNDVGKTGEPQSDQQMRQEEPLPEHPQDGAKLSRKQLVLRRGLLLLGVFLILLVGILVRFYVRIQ
Briefly: Substrate assessment: iohexol uptake in 293 cells expressing hMATE1 vs control. To be noted: 10 μM iohexol, median (95% CI). Format: in vitro ADME. The text has this:
We characterized the inhibitory potential of iohexol on major drug transporters recommended by regulatory agencies, which were previously assessed in a clinical transporter phenotyping cocktail study. These transporters include hOAT1, hOAT3, hOCT1, hOCT2, hMATE1, hMATE2K, human organic anion transporter polypeptides (hOATP)1B1, hOATP1B3, and human multidrug resistance protein (hMDR)1. Additionally, we investigated whether iohexol is a substrate for any of the renal transporters among these, including hOAT1/3, hOCT1/2, and hMATE1/2K. Cell‐based uptake assays were used to assess the activities of hOAT1/3, hOCT1/2, hMATE1/2K, and hOATP1B1/1B3. Inside‐out membrane vesicle uptake assays were used to evaluate the activity of hMDR1.
For substrate assessments, iohexol was incubated with stably transfected HEK‐293 cells expressing one of the following transporters: hOAT1, hOAT3, hOCT1, hOCT2, hMATE1, or hMATE2K, as well as with control cells lacking transporter expression. Stably transfected cell lines containing pEBTetD plasmids with wild‐type human transporter cDNAs were generated as previously described. Transporter expression was induced by adding 1 μg/mL doxycycline to the growth medium for at least 20 h. Iohexol would be considered a substrate for these transporters if: (1) the ratio of iohexol uptake in cells expressing the transporter to that in control cells was ≥ 2, and (2) a known inhibitor of the transporter reduced iohexol uptake to ≤ 50% at concentrations ≥ 10 times its inhibition constant or half‐maximal inhibitory concentration.
Uptake assays were performed using stably transfected 293 cells, with or without the expression of one of the following transporters: hOAT1, hOAT3, hOCT1, hOCT2, hMATE1, or hMATE2K, as previously described.^1
For the substrate assessment, cells were incubated with 10 µM iohexol for 10 minutes and 30 minutes for each transporter. Inhibition assays were performed using specific standard substrates for each transporter: 10 µM para-aminohippuric acid (PAH) for hOAT1, 3 µM estrone-3-sulfate (E3S) for hOAT3, 50 µM metformin for hOCT1, 5 µM metformin for hOCT2, and 3 µM 1-methyl-4-phenylpyridinium (MPP+) for hMATE1 and hMATE2K. […]
R version 4.2.1 (R Foundation for Statistical Computing, Vienna, Austria) was used for statistical evaluations and data visualization. The data analysis approach for the in vitro study was detailed by Hsin CH et al..^1 In brief, for transport assays, the initial uptake rate was calculated by normalizing the substrate concentration to both the protein concentration and the incubation time for each dish or well. The transporter-mediated uptake rate (net uptake) was determined by performing an element-wise subtraction of uptake rates from different conditions. […]

The test system of a further series is OCT2. The arrangement: method as in ref 15 Yang et al. To be noted: HK‐2 cells; ref 15 Yang et al.; cited from earlier work.

Each structure is given as a SMILES string. Like-named read-outs stand apart in the source and are kept apart here.

As for `CC(=O)N(CC(O)CO)c1c(I)c(C(=O)NCC(O)CO)c(I)c(C(=O)NCC(O)CO)c1I` (stereo not drawn) [iohexol], the “Volume of distribution, previous three-compartment model estimate (median)” value in series [1] is 15.09 L. The Cmax in series [1] (following a 3235 mg iohexol injection, patients aged ≥ 70 years, median GFR 60.7 mL/min/1.73 m^2, read-out: Cmax (initial plasma concentration)) was around 370 µM. Besides, the “Ratio of renal clearance to GFR” value in series [2] (perfusate concentration 5 μg/mL) was 0.63 ± 0.06; in series [2] (perfusate concentration 20 μg/mL), 1.02 ± 0.06. The results for the “Differences in intracellular accumulation (expression on minus off)” value at hMATE1 (10 minutes) and at hMATE1 (30 minutes) were 0.36 (-1.2 to 1.7) pmol/mg protein and -0.67 (-1.6 to 0.61) pmol/mg protein, respectively. Further, the “Uptake ratio (transporter-expressing vs non-expressing cells)” value on hMATE1 (10 minutes) is 1.1 (0.84 to 1.2); at hMATE1 (30 minutes), 0.92 (0.78 to 1.1). For the same compound, the “Expression of OCT2” value in the series with OCT2 was “downregulated”.
